Experimental data taken from patent publication US9057727B2, “Screening methods using G-protein coupled receptors and related compositions” (The General Hospital Corporation, priority 2007, dated 2015).
Read-outs that look alike come from different tables or passages of the source. Square brackets hold non-standard residues; d marks the D form. Ends that are not written are not given here. Peptide text beside a SMILES is read from it. hArg = N=C(N)NCCCC[C@H](N)C(=O)O; Aib = CC(C)(N)C(=O)O

Assays:
[1] = target: T1, human PTHR, G protein-coupled conformation (RG) (Homo sapiens, UniProt Q03431); experiment: Competition binding to RG conformation of hPTHR (COS-7 membranes, GαsND, 125I-[Aib1,3,M]PTH(1-15) tracer)
T1 construct: expressed in transfected cells; host or cells: COS-7, transient (Fugene-6); membranes
T1 sequence (Q03431 27-593): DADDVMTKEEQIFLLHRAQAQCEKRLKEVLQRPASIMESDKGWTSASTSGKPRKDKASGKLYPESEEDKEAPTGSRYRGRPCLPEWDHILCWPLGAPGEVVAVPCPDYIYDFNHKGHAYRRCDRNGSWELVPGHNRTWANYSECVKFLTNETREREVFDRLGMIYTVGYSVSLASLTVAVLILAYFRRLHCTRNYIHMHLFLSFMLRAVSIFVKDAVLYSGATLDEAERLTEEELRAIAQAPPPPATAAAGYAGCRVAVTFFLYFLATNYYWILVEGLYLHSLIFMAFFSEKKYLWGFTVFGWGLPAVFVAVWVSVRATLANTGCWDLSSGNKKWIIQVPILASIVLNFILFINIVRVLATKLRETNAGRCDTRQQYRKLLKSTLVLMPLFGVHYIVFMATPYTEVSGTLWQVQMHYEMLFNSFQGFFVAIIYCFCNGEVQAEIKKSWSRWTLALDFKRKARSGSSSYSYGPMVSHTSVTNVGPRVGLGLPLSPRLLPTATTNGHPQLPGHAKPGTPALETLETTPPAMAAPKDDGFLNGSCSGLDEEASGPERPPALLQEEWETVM

MC3T3-E1 cells = experiment: cAMP in MC3T3-E1 cells, dose-response; assay type: cell-based
Procedure: In the 1-30 scaffold, Gly, Ser, Leu, Asn, Gln, Trp, Glu, and Lys were substituted at position 29; Gly, Ser, Leu, Asn, Asp, Trp, and Lys were substituted at position 30; and Ser, Leu, Asn, Val, Trp, Glu, and Lys were substituted at position 31. […] These peptides were tested for cAMP activity in MC3T3-E1 cells.

SaOS cells = experiment: cAMP production in SaOS cells, dose-response; assay type: cell-based; settings: Table 2; read-out: SaOS camp EC50
[2] = Bone structural parameters after two-week daily treatment in mice (Piximus, microCT); assay type: in vivo
Procedure: FIG. 31 is a set of images showing the effects of two-week daily treatment of R^0 and RG ligands on trabecular and cortical bone structure in mice. Mice (C57BL/6, males, 3 months) were treated (i.v.) with either vehicle, rPTH(1-34) (SEQ ID NO:130), M-PTH(1-34) (SEQ ID NO:12), or E^18,A^22,L^25,K^26 (EALK)PTHrP(1-30) (SEQ ID NO:90) (5 nmol/kg; n=7 group), daily for 14 days, and femurs were analyzed by μCT.
As described above, mice were treated intravenously) with either vehicle, rPTH(1-34), M-PTH(1-34), or EALK-PTHrP(1-30) daily for 14 days.

[3] = Bone turnover markers (PINP, osteocalcin, CTX) in mice, daily treatment; assay type: in vivo; settings: 5 nmol/kg i.v. daily, days 6 and 13
Procedure: FIGS. 30A-30F are graphs showing the effects of PTH analogs on plasma bone markers in mice. Mice (C57BL/6, males, 3 months) were intravenously injected daily with either vehicle, rPTH(1-34) (SEQ ID NO:130), M-PTH(1-34) (SEQ ID NO:12), or (EALK)-PTHrP(1-30) (SEQ ID NO:90) (5 nmol/kg; n=7 group) for 14 days. Markers of bone turnover (PINP, CTX and osteocalcin) were assessed by ELISA in blood at day 6 (FIGS. 30A, 30C, and 30E, respectively) and 13 (FIGS. 30B, 30D, and 30F, respectively).
A second set of experiments was performed in which mice received 5 nmol/kg intravenous daily treatment with rPTH(1-34), M-PTH(1-34), or EALK-PTHrP(1-30) for 14 days. Blood samples were taken at days 6 and 13, and markers of bone turnover (PINP, osteocalcin and CTX) were assessed by ELISA.

[4] = target: T2, human PTHR, G protein-uncoupled conformation (R^0) (Homo sapiens, UniProt Q03431); experiment: Competition binding to R0 conformation of hPTHR (COS-7 membranes, GTPγS, 125I-PTH(1-34) tracer)
T2 construct: expressed in transfected cells; host or cells: COS-7, transient (Fugene-6)
T2 sequence (Q03431 27-593): T1 sequence (Q03431 27-593)
Method in brief: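 Membranes from hPTHR-transfected COS-7 cells (20-100 μg/mL protein) incubated 90 min with radioligand (~150,000 cpm/ml) and unlabeled ligands, then filtered. Specific binding expressed as % of binding without competitor.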

[5] = Blood ionized calcium in C57BL/6 mice after intravenous injection; assay type: in vivo; settings: 5 nmol/kg i.v.
Procedure: FIGS. 29A and 29B are graphs showing the effect of R^0 and RG selective PTH analogs on plasma cAMP and calcium in mice. FIGS. 29A and 29B show plasma cAMP concentrations in mice (C57BL/6, males, 3 months) that were administered either vehicle, rPTH(1-34) (SEQ ID NO:130), M-PTH(1-34) (M=A^1,Aib^3,Q^10,Har^11,A^12,W^14,R^19) (SEQ ID NO:12), or E^18,A^22,L^25,K^26-(EALK)-PTHrP(1-30) (SEQ ID NO:90) (5 nmol/kg; n=7 for cAMP, n=4 for calcium) intravenously. […] In the calcium experiment, blood was withdrawn before, and 1, 2, 4 and 6 hours after injection, and ionized calcium was measured using a Ca^++/pH analyzer.
We also characterized the effects of the EALK-PTHrP(1-30) peptide on cAMP production. Three month old male C57BL/6 mice were intravenously injected with either vehicle, rPTH(1-34), M-PTH(1-34) (M=A^1,Aib^3,Q^10,Har^11,A^12,W^14,R^19) or E^18,A^22,L^25,K^26-(EALK)-PTHrP(1-30) (5 nmol/kg). In the cAMP experiment (FIG. 29A), blood was withdrawn 10 minutes after injection and plasma level of cAMP was measured by RIA. In the calcium experiment (FIG. 29B), blood was withdrawn prior to injection and 1, 2, 4, and 6 hours after injection. Ionized calcium was measured using a Ca^++/pH analyzer.

hPTHR [6] = target: T3, hPTHR (Homo sapiens, UniProt Q03431); experiment: Inositol phosphate production in COS-7/hPTHR cells; assay type: cell-based; parameters: expressed in transfected cells; host or cells: COS-7, transient (Fugene-6); settings: basal 330 ± 8 cpm/well not subtracted
T3 sequence (Q03431 27-593): T1 sequence (Q03431 27-593)
Procedure: The capacity of the ligands to stimulate the production of inositol phosphates (IPs) was assessed in COS-7 cells transiently transfected with the hPTHR (FIG. 7B). Cells were treated for 30 minutes at room temperature with varying concentrations of ligand. […] Data are means (±s.e.m.) of four (FIG. 7A) or five (FIG. 7B) experiments, each performed in duplicate.
The stimulation of intracellular inositol phosphates (IPs) was measured in transiently transfected COS-7 cells that were pre-labeled (16 hours) with ^3H-myo-D-inositol (2 μCi/ml). Cells were treated with ligand in DMEM containing fetal bovine serum (10%) and LiCl (30 mM) for 30 minutes; cells were lysed with ice cold trichloro acetic acid (5%) and IPs were extracted from the acid-lysates by ion-exchange filtration, as described (Shimizu et al., J. Biol. Chem. 276:49003-49012 (2001)).

hPTHR [7] = target: T3, hPTHR; experiment: cAMP dose-response in HKRK-B64 cells; assay type: cell-based; parameters: expressed in transfected cells; settings: basal 5.2 ± 0.9 pmole/well not subtracted
Procedure: Cells were treated for 30 minutes at room temperature with varying concentrations of ligand in the presence of IBMX. […] Data are means (±s.e.m.) of four (FIG. 7A) or five (FIG. 7B) experiments, each performed in duplicate.
Following treatment of cells with a ligand, the intracellular cAMP levels were measured by radioimmuno assay, as described (Shimizu et al., J. Biol. Chem. 276:49003-49012 (2001)).

[8] = Calcemic action in normal rats (blood ionized calcium); assay type: in vivo; settings: normal and TPTX rats
Method in brief: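 Female SD-IGS rats, 8 weeks old, dosed intravenously at 1 ml/kg with peptides in PC-buffer (pH 5.0), 6 per group. Tail-vein blood ionized calcium corrected to pH 7.4 at baseline and 1, 2, 4, 6 h. Time course versus vehicle as mean ± SE.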

[9] = Piximus, mice, 5 nmol/kg i.v. daily 14 days
[10] = mice, 5 nmol/kg i.v. daily 14 days

CC[C@H](C)[C@H](NC(=O)[C@H](CC(C)C)NC(=O)[C@H](CCCCN)NC(=O)[C@H](CC(C)C)NC(=O)[C@H](CC(C)C)NC(=O)[C@H](Cc1ccccc1)NC(=O)[C@H](C)NC(=O)[C@H](CCCNC(=N)N)NC(=O)[C@H](CCCNC(=N)N)NC(=O)[C@H](CCCNC(=N)N)NC(=O)[C@H](CCC(=O)O)NC(=O)[C@H](CC(=O)O)NC(=O)[C@H](CCC(N)=O)NC(=O)[C@@H](NC(=O)[C@H](CO)NC(=O)[C@H](CCCCN)NC(=O)CNC(=O)[C@H](CCCCN)NC(=O)[C@H](CC(=O)O)NC(=O)[C@H](Cc1c[nH]cn1)NC(=O)[C@H](CC(C)C)NC(=O)[C@H](CC(C)C)NC(=O)[C@H](CCC(N)=O)NC(=O)[C@H](Cc1c[nH]cn1)NC(=O)[C@H](CCC(=O)O)NC(=O)[C@H](CO)NC(=O)[C@@H](NC(=O)[C@H](C)N)C(C)C)[C@@H](C)CC)C(=O)N[C@@H](C)C(=O)N[C@@H](CCC(=O)O)C(N)=O [E18, A22, L25, K26-PTHrP(1-30)NH, E18,A22,L25,K26-PTHrP(1-30)] (H-AVSEHQLLHDKGKSIQDERRRAFLLKLIAE-NH2; N-terminus assumed)
IC50 ([1]; Table 2, read-out: RG binding affinity hPTHR IC50): 0.08 nM | IC50 ([1]; Table 4, human PTH1 receptor, read-out: RG binding IC50): 0.08 nM | EC50 (MC3T3-E1 cells; Table 2, read-out: MC3T3-E1 cAMP EC50): 0.059 nM | EC50 (MC3T3-E1 cells; Table 3, read-out: dose-response cAMP in MC3T3-E1 (EC50)): 0.059 nM | EC50 (SaOS cells): 0.063 nM | Lumbar Spine BMD [2, 9]: 0.0464 ± 0.0002 g/cm^2 | Total Femur BMD [2, 9]: 0.620 ± 0.0003 g/cm^2 | effect on trabecular/cortical bone and BMD, in words [2, 10]: increased cortical bone thickness with significance in the distal femur | Conn-Dens. ([2]; microCT distal femur): 117 ± 9 1/mm^3 | Cort Th. ([2]; microCT distal femur): 238 ± 9 μm | Tb · N ([2]; microCT distal femur): 4.13 ± 0.16 1/mm | Tb · Th ([2]; microCT distal femur): 57.8 ± 2.1 μm | TbSp ([2]; microCT distal femur): 238 ± 10 μm | TrabecularBV/TV ([2]; microCT distal femur): 16.5 ± 1.3% | BA ([2]; microCT mid femur): 0.821 ± 0.027 mm^2 | BA/TA ([2]; microCT mid femur): 40.3 ± 0.6% | Cort Th. ([2]; microCT mid femur): 176 ± 4 μm | MA ([2]; microCT mid femur): 1.21 ± 0.03 mm^2 | TA ([2]; microCT mid femur): 2.03 ± 0.06 mm^2 | effect on bone turnover markers, in words [3]: increased bone formation markers, with relatively smaller effects on the resorption marker | R0/RG selectivity ([4]; Table 2, hPTHR): 11169 | IC50 ([4]; Table 4, human PTH1 receptor, read-out: R0 binding IC50): 945 nM | R0/RG ratio ([4]; human PTH receptor on COS-7 cell membranes): 11813 | ionized calcium response, in words [5]: similar, if not lower, than that of PTH(1-34)

CCCC[C@H](NC(=O)[C@H](CCCNC(=N)N)NC(=O)[C@H](CCC(=O)O)NC(=O)[C@@H](NC(=O)[C@H](CO)NC(=O)[C@H](C)NC(=O)[C@H](CC(C)C)NC(=O)[C@H](Cc1c[nH]cn1)NC(=O)[C@H](CCCCN)NC(=O)CNC(=O)[C@H](CC(C)C)NC(=O)[C@H](CC(N)=O)NC(=O)[C@H](Cc1c[nH]cn1)NC(=O)[C@H](CCCC)NC(=O)[C@H](CC(C)C)NC(=O)[C@H](CCC(N)=O)NC(=O)[C@@H](NC(=O)[C@H](CCC(=O)O)NC(=O)[C@H](CO)NC(=O)[C@@H](NC(=O)[C@H](C)N)C(C)C)[C@@H](C)CC)C(C)C)C(=O)N[C@@H](CCC(N)=O)C(=O)N[C@@H](Cc1c[nH]c2ccccc12)C(=O)N[C@@H](CC(C)C)C(=O)N[C@@H](CCCNC(=N)N)C(=O)N[C@@H](CCCCN)C(=O)N[C@@H](CCCCN)C(=O)N[C@@H](CC(C)C)C(=O)N[C@@H](CCC(N)=O)C(=O)N[C@@H](CC(=O)O)C(=O)N[C@H](C(=O)N[C@@H](Cc1c[nH]cn1)C(=O)N[C@@H](CC(N)=O)C(=O)N[C@@H](Cc1ccc(O)cc1)C(N)=O)C(C)C [[Nle^8,21,Tyr^34]rPTH(1-34)NH2, [Nle^8,21,Tyr^34]rat(r)PTH(1-34)NH2, reference compound]
IC50 ([1]; Table 5, read-out: IC50 RG, ^125I-PTH(1-15) + GsND): 0.86 ± 0.24 nM | IP in COS-7/hPTHR cells Emax (hPTHR [6]): 2,407 ± 138 cpm/well | IC50 ([4]; IC50 RR^0, ^125I-PTH(1-34) + GTPγS, Table 5): 4.2 ± 0.5 nM | R0:RG ([4]; Table 5, fold weaker affinity for R0 than RG): 5 | cAMP in HKRK-B64 cells Emax (hPTHR [7]): 55 ± 12 picomole/well

Ala^1,Aib^3-[M]PTH(1-34) (AV[Aib]EIQLMHQ[hArg]AKWLNSMRRVEWLRKKLQDVHNF) [M-PTH(1-34), M=A1,Aib3,Q10,Har11,A12,W14,R19]
calcemic action compared with control peptides, in words [8]: higher calcemic actions than did PTH(1-34) | Lumbar Spine BMD [2, 9]: 0.0524 ± 0.0002 g/cm^2 | effect on trabecular/cortical bone and BMD, in words [2, 10]: robustly increased trabecular bone, but also detectably diminished cortical bone | Conn-Dens. ([2]; microCT distal femur): 263 ± 25 1/mm^3 | Cort Th. ([2]; microCT distal femur): 166 ± 6 μm | Tb · N ([2]; microCT distal femur): 5.22 ± 0.34 1/mm | Tb · Th ([2]; microCT distal femur): 71.5 ± 1.8 μm | TbSp ([2]; microCT distal femur): 208 ± 17 μm | TrabecularBV/TV ([2]; microCT distal femur): 35.0 ± 3.0% | BA ([2]; microCT mid femur): 0.837 ± 0.022 mm^2 | BA/TA ([2]; microCT mid femur): 40.0 ± 0.8% | Cort Th. ([2]; microCT mid femur): 151 ± 3 μm | MA ([2]; microCT mid femur): 1.26 ± 0.04 mm^2 | TA ([2]; microCT mid femur): 2.10 ± 0.06 mm^2 | effect on bone turnover markers, in words [3]: strongly induced increases in markers of both bone formation | ionized calcium response, in words [5]: markedly more robust and more sustained than that of PTH(1-34)
